Laboratory results taken from US10435447B2, “Bacteriocidal peptides and uses thereof” (priority 2015, dated 2019).
≈ marks a conversion by molar mass, not a printed value. Read-outs that look alike come from different tables or passages of the source. Residues, ends and D or L forms follow the SMILES beside them.

Key:
K. pneumoniae [1] = test system: K. pneumoniae
E. coli [2] = experiment: microbe, parasite or virus in culture; settings: Escherichia coli
S. marcescens [3] = experiment: microbe, parasite or virus in culture; settings: Serratia marcescens
P. aeruginosa [4] = experiment: microbe, parasite or virus in culture; settings: Pseudomonas aeruginosa
E. cloacae [5] = experiment: microbe, parasite or virus in culture; settings: Enterobacter cloacae
S. marcescens [6] = test system: S. marcescens
K. pneumoniae [7] = experiment: microbe, parasite or virus in culture; settings: Klebsiella pneumoniae
P. aeruginosa [8] = test system: P. aeruginosa
E. coli [9] = settings: for LVX MIC fold change (↓ decrease) / MEM MIC fold change (↓ decrease): with SMAP-29C* vs alone
E. cloacae [10] = test system: E. cloacae
[11] = test system: Toll-like receptor 3 (TLR3); settings: mouse cells and human cells; earlier finding; cited from earlier work
TLR4 = settings: earlier finding; cited from earlier work
[12] = test system: Toll-like receptor 3 (TLR3); experiment: IL-6 ELISA, TLR3 signaling with poly(I:C) in BEAS-2B cells; type: cell-based, human
Protocol: Innate immune signaling by endogenous Toll-like receptor 3 (TLR3) in BEAS-2B cells in response to double-stranded RNA and various bacteriocidal peptides. IL-6 cytokine produced in response to signal transduction by TLR3 and the double-stranded RNA mimic, poly(I:C), was quantified using ELISA. Where present, the peptides were added to the media of BEAS-2B cells to a final concentration of 2 μM. […] All assays were performed in three independent samples and the mean and one standard error is shown above the bars.

[13] = K. pneumoniae OC 4110, with SMAP-29C* vs alone
[14] = read-out: Kan + SMAP-29C* (Kan MIC)
[15] = S. marcescens 4104, with SMAP-29C* vs alone
[16] = P. aeruginosa PA01 oprD, with SMAP-29C* vs alone
[17] = E. cloacae OC 4080, with SMAP-29C* vs alone
[18] = read-out: MEM + SMAP-29C* (MEM MIC)

Compound: NC[C@H]1O[C@H](O[C@H]2[C@H](O)[C@@H](O[C@H]3O[C@H](CO)[C@@H](O)[C@H](N)[C@H]3O)[C@H](N)C[C@@H]2N)[C@H](O)[C@@H](O)[C@@H]1O [Kan, kanamycin]
- Kan MIC Fold change (↓ decrease) (K. pneumoniae [1]; [13]): ↓2x fold
- MIC (E. coli [2]; ATCC25922, read-out: Kan (MIC alone)): 2 µg/mL (≈ 4.13 µM)
- MIC (E. coli [2]; read-out: Kan (MIC alone)): 16 µg/mL (≈ 33 µM)
- MIC (E. coli [2]; [14]): 8 µg/mL
- MIC (S. marcescens [3]; read-out: Kan (MIC alone)): 4 µg/mL (≈ 8.26 µM)
- MIC (P. aeruginosa [4]; read-out: Kan (MIC alone)): 64 µg/mL (≈ 132 µM)
- MIC (P. aeruginosa [4]; [14]): 32 µg/mL
- MIC (E. cloacae [5]; read-out: Kan (MIC alone)): 2 µg/mL (≈ 4.13 µM)
- Kan MIC Fold change (↓ decrease) (S. marcescens [6]; [15]): ↓2x fold
- MIC (K. pneumoniae [7]; read-out: Kan (MIC alone)): 4 µg/mL (≈ 8.26 µM)

Compound: C[C@H]1COc2c(N3CCN(C)CC3)c(F)cc3c(=O)c(C(=O)O)cn1c23 [LVX, Levofloxacin]
- LVX + SMAP-29C* (LVX MIC) (P. aeruginosa [8]): <0.125 µg/mL
- LVX MIC fold change (↓ decrease) (P. aeruginosa [8]; [16]): ↓>32x fold
- LVX + SMAP-29C* (LVX MIC) (K. pneumoniae [1]): 0.5 µg/mL
- LVX MIC fold change (↓ decrease) (K. pneumoniae [1]; [13]): 1 fold
- LVX MIC fold change (↓ decrease) (E. coli [9]; E. coli ATCC 25922): 1 fold
- LVX MIC fold change (↓ decrease) (E. coli [9]; E. coli IU-342): ↓4x fold
- MIC (E. coli [2]; ATCC25922, read-out: LVX (MIC alone)): 0.016 µg/mL (≈ 0.0443 µM)
- MIC (E. coli [2]; read-out: LVX (MIC alone)): 8 µg/mL (≈ 22.1 µM)
- MIC (S. marcescens [3]; read-out: LVX (MIC alone)): 4 µg/mL (≈ 11.1 µM)
- MIC (P. aeruginosa [4]; read-out: LVX (MIC alone)): 4 µg/mL (≈ 11.1 µM)
- MIC (E. cloacae [5]; read-out: LVX (MIC alone)): 0.032 µg/mL (≈ 0.0886 µM)
- LVX + SMAP-29C* (LVX MIC) (E. cloacae [10]): <0.004 µg/mL
- LVX MIC fold change (↓ decrease) (E. cloacae [10]; [17]): ↓>8x fold
- LVX + SMAP-29C* (LVX MIC) (S. marcescens [6]): <0.125 µg/mL
- LVX MIC fold change (↓ decrease) (S. marcescens [6]; [15]): ↓>32x fold
- MIC (K. pneumoniae [7]; read-out: LVX (MIC alone)): 0.5 µg/mL (≈ 1.38 µM)

Compound: C[C@@H](O)[C@H]1C(=O)N2C(C(=O)O)=C(S[C@@H]3CN[C@H](C(=O)N(C)C)C3)[C@H](C)[C@H]12 [MEM, Meropenem]
- MEM MIC fold change (↓ decrease) (P. aeruginosa [8]; [16]): ↓2x fold
- MEM MIC fold change (↓ decrease) (K. pneumoniae [1]; [13]): 1x fold
- MEM MIC fold change (↓ decrease) (E. coli [9]; E. coli ATCC 25922): ↓2x fold
- MEM MIC fold change (↓ decrease) (E. coli [9]; E. coli IU-342): ↓>4x fold
- MIC (E. coli [2]; ATCC25922, read-out: MEM (MIC alone)): 0.016 µg/mL (≈ 0.0417 µM)
- MIC (E. coli [2]; ATCC25922, read-out: MEM + SMAP-29C* (MEM MIC)): 0.008 µg/mL
- MIC (E. coli [2]; read-out: MEM (MIC alone)): 0.016 µg/mL (≈ 0.0417 µM)
- MIC (E. coli [2]; [18]): < 0.004 µg/mL
- MIC (S. marcescens [3]; read-out: MEM (MIC alone)): 0.032 µg/mL (≈ 0.0834 µM)
- MIC (S. marcescens [3]; [18]): 0.008 µg/mL
- MIC (P. aeruginosa [4]; read-out: MEM (MIC alone)): 1 µg/mL (≈ 2.61 µM)
- MIC (P. aeruginosa [4]; [18]): 0.5 µg/mL
- MIC (E. cloacae [5]; read-out: MEM (MIC alone)): 0.032 µg/mL (≈ 0.0834 µM)
- MIC (E. cloacae [5]; [18]): 0.008 µg/mL
- MEM MIC fold change (↓ decrease) (E. cloacae [10]; [17]): ↓4x fold
- MEM MIC fold change (↓ decrease) (S. marcescens [6]; [15]): ↓4x fold
- MIC (K. pneumoniae [7]; read-out: MEM (MIC alone)): 0.052 µg/mL (≈ 0.136 µM)
- MIC (K. pneumoniae [7]; [18]): 0.032 µg/mL

Compound: CC[C@H](C)[C@H](NC(=O)[C@H](CCCCN)NC(=O)[C@H](CCCNC(=N)N)NC(=O)CNC(=O)[C@H](CC(C)C)NC(=O)[C@H](CCCNC(=N)N)NC(=O)[C@H](CCCNC(=N)N)NC(=O)[C@H](CC(C)C)NC(=O)CNC(=O)[C@@H](N)CCCNC(=N)N)C(=O)N[C@@H](C)C(=O)N[C@@H](Cc1c[nH]cn1)C(=O)NCC(=O)N[C@H](C(=O)N[C@@H](CCCCN)C(=O)N[C@@H](CCCCN)C(=O)N[C@@H](CS)C(=O)NCC(=O)N1CCC[C@H]1C(=O)N[C@H](C(=O)N[C@H](C(=O)N[C@@H](CC(C)C)C(=O)N[C@@H](CCCNC(=N)N)C(=O)N[C@H](C(=O)N[C@H](C(=O)N[C@@H](CCCNC(=N)N)C(=O)N[C@H](C(=O)N[C@@H](C)C(=O)NCC(=O)N[C@@H](CS)C(=O)O)[C@@H](C)CC)[C@@H](C)CC)[C@@H](C)CC)C(C)C)[C@@H](C)O)C(C)C [SMAP-29C] (H-RGLRRLGRKIAHGVKKCGPTVLRIIRIAGC-OH; N-terminus and C-terminus assumed)
- MIC for ShpC + Kan* (P. aeruginosa [8]): 2 µg/mL
- MIC for ShpC + Kan* (K. pneumoniae [1]; K. pneumoniae OC 4110, with Kan* 2 μg/ml (½ MIC)): 2 µg/mL
- SMAP-29C MIC fold change (↓ decrease) (K. pneumoniae [1]; K. pneumoniae OC 4110, with Kan* vs alone): ↓4x fold
- SMAP-29C MIC fold change (↓ decrease) (K. pneumoniae [1]; K. pneumoniae OC 4110, with LVX* vs alone): 1x fold
- SMAP-29C MIC fold change (↓ decrease) (K. pneumoniae [1]; K. pneumoniae OC 4110, with MEM* vs alone): ↓2x fold
- MIC (E. faecalis): 32 µg/mL (≈ 9.7 µM)
- MIC for ShpC + Kan* (E. coli [9]; E. coli ATCC25922, with Kan* 1 μg/ml (½ MIC)): <0.25 µg/mL
- MIC for ShpC + Kan* (E. coli [9]; E. coli IU-342, with Kan* 8 μg/ml (½ MIC)): 2 µg/mL
- MIC for ShpC + Kan* (E. cloacae [10]; E. cloacae OC 4080, with Kan* 1 μg/ml (½ MIC)): 2 µg/mL
- MIC for ShpC + Kan* (S. marcescens [6]; S. marcescens 4104, with Kan* 2 μg/ml (½ MIC)): 2 µg/mL
- SMAP-29C MIC fold change (↓ decrease) (S. marcescens [6]; S. marcescens 4104, with Kan* vs alone): ↓>8x fold
- SMAP-29C MIC fold change (↓ decrease) (S. marcescens [6]; S. marcescens 4104, with LVX* vs alone): ↓>4x fold
- SMAP-29C MIC fold change (↓ decrease) (S. marcescens [6]; S. marcescens 4104, with MEM* vs alone): No change

Compound: CRAMP: SEQ ID NO: 4, mouse ortholog of LL-37, GLLRKGGEKIGEKLKKIGQKIKNFFQKLVPQPEQ (listed as Mus musculus)
- activation of signaling by TLR3 [11]: unable to activate signaling by TLR3
- suppression of inflammatory response induced by lipopolysaccharide (TLR4): retained the ability to suppress inflammatory response
- enhancement of TLR3 signaling / IL-6 production (in words) [12]: unable to enhance IL-6 production
